Test results taken from ChEMBL document CHEMBL4376860, “Discovery of Novel Dual Poly(ADP-ribose)polymerase and Phosphoinositide 3-Kinase Inhibitors as a Promising Strategy for Cancer Therapy” (J Med Chem, 2020).

What was measured:
[1] = target: Poly [ADP-ribose] polymerase 1 (Homo sapiens, UniProt P09874); assay: Inhibition of recombinant human PARP1 using histone as substrate after 1 hr in presence of biotinylated NAD+ by ELISA
[2] = target: Phosphatidylinositol 4,5-bisphosphate 3-kinase catalytic subunit alpha isoform (Homo sapiens, UniProt P42336); assay: Inhibition of PI3Kalpha (unknown origin) using PIP2 as substrate measured after 1 hr by ADP-glo plus luminescence assay
Sequence of Phosphatidylinositol 4,5-bisphosphate 3-kinase catalytic subunit alpha isoform (P42336 whole entry, canonical isoform): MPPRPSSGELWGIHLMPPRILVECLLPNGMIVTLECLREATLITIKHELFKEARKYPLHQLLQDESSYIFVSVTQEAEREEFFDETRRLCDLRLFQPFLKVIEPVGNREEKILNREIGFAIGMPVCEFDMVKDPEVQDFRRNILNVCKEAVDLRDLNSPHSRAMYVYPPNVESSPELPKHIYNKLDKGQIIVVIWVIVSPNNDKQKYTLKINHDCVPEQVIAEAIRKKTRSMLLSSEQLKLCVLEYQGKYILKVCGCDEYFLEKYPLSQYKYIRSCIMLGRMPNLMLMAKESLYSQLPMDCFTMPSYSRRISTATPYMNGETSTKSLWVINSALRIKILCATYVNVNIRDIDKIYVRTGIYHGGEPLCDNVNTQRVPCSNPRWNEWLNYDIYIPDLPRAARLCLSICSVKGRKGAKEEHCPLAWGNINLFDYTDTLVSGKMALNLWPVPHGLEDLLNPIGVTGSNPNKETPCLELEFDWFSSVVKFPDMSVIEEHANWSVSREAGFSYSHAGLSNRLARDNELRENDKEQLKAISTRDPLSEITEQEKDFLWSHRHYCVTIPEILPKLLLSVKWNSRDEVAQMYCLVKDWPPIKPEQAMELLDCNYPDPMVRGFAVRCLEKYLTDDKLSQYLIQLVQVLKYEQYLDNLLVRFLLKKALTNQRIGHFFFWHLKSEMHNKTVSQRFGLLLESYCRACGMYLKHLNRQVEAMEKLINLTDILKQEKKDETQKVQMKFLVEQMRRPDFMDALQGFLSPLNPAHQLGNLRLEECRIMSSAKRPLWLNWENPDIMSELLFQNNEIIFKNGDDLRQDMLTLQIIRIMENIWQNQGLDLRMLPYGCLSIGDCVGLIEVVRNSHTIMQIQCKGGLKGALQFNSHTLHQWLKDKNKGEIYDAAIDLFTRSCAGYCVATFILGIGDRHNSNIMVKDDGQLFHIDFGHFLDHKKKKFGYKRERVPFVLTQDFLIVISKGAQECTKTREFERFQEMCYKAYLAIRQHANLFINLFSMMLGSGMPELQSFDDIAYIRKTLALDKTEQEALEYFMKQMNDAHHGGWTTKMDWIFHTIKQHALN

Sequence of Poly [ADP-ribose] polymerase 1 (P09874 whole entry, canonical isoform): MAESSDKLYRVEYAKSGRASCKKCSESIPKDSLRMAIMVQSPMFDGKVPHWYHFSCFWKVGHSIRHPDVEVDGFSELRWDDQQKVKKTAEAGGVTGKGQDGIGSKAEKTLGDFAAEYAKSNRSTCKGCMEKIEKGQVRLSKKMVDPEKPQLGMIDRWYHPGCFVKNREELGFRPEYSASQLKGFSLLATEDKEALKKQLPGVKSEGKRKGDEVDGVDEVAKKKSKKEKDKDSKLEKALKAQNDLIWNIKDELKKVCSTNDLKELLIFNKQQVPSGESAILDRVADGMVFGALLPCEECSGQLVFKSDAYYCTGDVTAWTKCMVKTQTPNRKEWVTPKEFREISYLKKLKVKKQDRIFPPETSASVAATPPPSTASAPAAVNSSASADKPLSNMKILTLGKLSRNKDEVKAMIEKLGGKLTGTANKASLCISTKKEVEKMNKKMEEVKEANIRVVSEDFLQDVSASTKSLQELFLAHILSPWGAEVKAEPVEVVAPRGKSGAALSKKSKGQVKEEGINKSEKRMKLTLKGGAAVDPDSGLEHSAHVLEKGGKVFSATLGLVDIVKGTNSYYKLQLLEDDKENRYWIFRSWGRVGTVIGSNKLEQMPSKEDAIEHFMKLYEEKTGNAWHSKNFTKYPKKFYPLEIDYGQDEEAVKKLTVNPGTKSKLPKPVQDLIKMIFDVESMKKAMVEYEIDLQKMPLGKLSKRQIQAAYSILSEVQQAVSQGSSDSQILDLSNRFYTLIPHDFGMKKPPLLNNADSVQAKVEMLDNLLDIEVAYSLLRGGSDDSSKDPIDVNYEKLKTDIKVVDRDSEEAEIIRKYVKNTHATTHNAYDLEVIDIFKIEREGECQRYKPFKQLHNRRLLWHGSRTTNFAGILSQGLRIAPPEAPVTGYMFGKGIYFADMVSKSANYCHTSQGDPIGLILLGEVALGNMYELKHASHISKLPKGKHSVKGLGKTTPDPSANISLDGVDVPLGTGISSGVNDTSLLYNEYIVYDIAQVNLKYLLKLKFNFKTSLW

Q: Which results are given for O=C(c1cc(Cc2n[nH]c(=O)c3ccccc23)ccc1F)N1CCc2c(nc(-c3cccc4[nH]ccc34)nc2N2CCOCC2)C1?
A: IC50 [1]: 4.9 nM; IC50 [2]: 43.7 nM

Q: With Nc1cc(C(F)(F)F)c(-c2nc(N3CCOCC3)nc(N3CCN(C(=O)c4cc(Cc5n[nH]c(=O)c6ccccc56)ccc4F)CC3)n2)cn1 as the compound, how does the IC50 [1] read?
A: 9.55 nM

Q: And the IC50 [2]?
A: 170 nM

Q: For O=C(c1cc(Cc2n[nH]c(=O)c3ccccc23)ccc1F)N1CCc2c(nc(-c3cccc4[nH]ncc34)nc2N2CCOCC2)C1, which IC50 [1] is on record?
A: 6.17 nM

Q: What about the IC50 [2] of the same compound?
A: 44.7 nM

Q: How did the IC50 [1] turn out when O=C(c1cc(Cc2n[nH]c(=O)c3ccccc23)ccc1F)N1CCN(c2nc(-c3ccc4[nH]ccc4c3)nc(N3CCOCC3)n2)CC1 was run?
A: 0.692 nM

Q: What about the IC50 [2] of the same compound?
A: 692 nM

Q: How did the IC50 [1] turn out when Nc1ccc(-c2nc(N3CCOCC3)nc(N3CCN(C(=O)c4cc(Cc5n[nH]c(=O)c6ccccc56)ccc4F)CC3)n2)cc1F was run?
A: 0.832 nM

Q: What about the IC50 [2] of the same compound?
A: 562 nM

Q: How did the IC50 [1] turn out when Nc1cc(-c2nc(N3CCOCC3)nc(N3CCN(C(=O)c4cc(Cc5n[nH]c(=O)c6ccccc56)ccc4F)CC3)n2)ccc1F was run?
A: 1.1 nM

Q: What about the IC50 [2] of the same compound?
A: 2290 nM

Q: Which IC50 [1] does the source give for Nc1ccc(-c2nc(N3CCOCC3)nc(N3CCN(C(=O)c4cc(Cc5n[nH]c(=O)c6ccccc56)ccc4F)CC3)n2)cn1 here?
A: 1.07 nM

Q: What about the IC50 [2] of the same compound?
A: 132 nM

Q: Which IC50 [1] does the source give for Nc1cc(C(F)(F)F)c(-c2cc(N3CCN(C(=O)c4cc(Cc5n[nH]c(=O)c6ccccc56)ccc4F)CC3)nc(N3CCOCC3)n2)cn1 here?
A: 15.5 nM

Q: And the IC50 [2]?
A: 324 nM

Q: Nc1ncc(-c2nc(N3CCOCC3)nc(N3CCN(C(=O)c4cc(Cc5n[nH]c(=O)c6ccccc56)ccc4F)CC3)n2)cc1C(F)(F)F was tested. Which IC50 [1] did it give?
A: 1.12 nM

Q: And the IC50 [2]?
A: 1200 nM
